# Legend:
# [1] = system: DU145 (prostate cancer); assay: Effect on tumor cell lines (Latham assay), DU145; assay type: cell-based; conditions: Homo sapiens, DU-145; DU145 cells, examined 96 hours after treatment; read-out: Potencies (IC50) DU 145
# Experimental: (§1) The plated cells were treated 24 hours later with a compound of the invention dissolved in DMSO at multiple concentrations ranging from 0.01 μM to 100 μM. […] When necessary, the total number of viable cells was determined by trypsinizing the wells and counting the number of viable cells, as determined by trypan blue exclusion, using a hemacytometer.
# [2] = system: K562 (chronic myelogenous leukemia); assay: Effect on tumor cell lines (Latham assay), K562; assay type: cell-based; conditions: Homo sapiens; K562 cells, examined 96 hours after treatment; read-out: Potencies (IC50) K 562
# Experimental: as §1
SMILES,IC50 [1],IC50 [2],melting point
"Cc1ccc(S(=O)(=O)c2cc3cnc(Nc4ccc5c(c4)CC(=O)N5)nc3n(C)c2=O)cc1 [Example 27, 2-(2-oxoindolin-5-ylamino)-8-methyl-6-tosylpyrido[2,3-d]pyrimidin-7(8H)-one]",50 to 100 µM,25 to 50 µM,280 °C
"Cn1c(=O)c(S(=O)(=O)c2ccccc2)cc2cnc(Nc3ccc4cc[nH]c4c3)nc21 [Example 25, 2-(1H-indol-6-ylamino)-8-methyl-6-(phenylsulfonyl)pyrido[2,3-d]pyrimidin-7(8H)-one]",25 to 50 µM,25 to 50 µM,> 350 °C
"COc1ccc(Nc2ncc3cc(S(=O)(=O)c4ccc(Cl)cc4)c(=O)n(C)c3n2)cc1 [Example 4, 6-(4-chlorophenylsulfonyl)-2-(4-methoxyphenylamino)-8-methylpyrido[2,3-d]pyrimidin-7(8H)-one]",25 to 50 µM,10 to 25 µM,286 to 290 °C
"CSc1ncc2cc(S(=O)(=O)c3ccccc3)c(=O)[nH]c2n1 [Example 68, 2-(methylsulfanyl)-6-(phenylsulfonyl)pyrido[2,3-d]pyrimidin-7(8H)-one]",> 100 µM,> 100 µM,280 °C (dec.)
"CSc1ncc2cc(S(=O)(=O)c3ccccc3)c(=O)n(C3CCCC3)c2n1 [Example 67, 8-cyclopentyl-2-(methylsulfanyl)-6-(phenylsulfonyl)pyrido[2,3-d]pyrimidin-7(8H)-one]",50 to 100 µM,50 to 100 µM,184 to 185 °C
"Cn1c(=O)c(S(=O)(=O)c2ccccc2)cc2cnc(Nc3ccc4ncccc4c3)nc21 [Example 23, 8-methyl-6-(phenylsulfonyl)-2-(quinolin-6-ylamino)pyrido[2,3-d]pyrimidin-7(8H)-one]",50 to 100 µM,> 100 µM,348 to 350 °C
"Cn1c(=O)c(S(=O)(=O)c2ccc(F)cc2)cc2cnc(Nc3ccc4cc[nH]c4c3)nc21 [Example 24, 2-(1H-indol-6-ylamino)-6-(4-fluorophenylsulfonyl)-8-methylpyrido[2,3-d]pyrimidin-7(8H)-one]",25 to 50 µM,25 to 50 µM,> 350 °C
"O=c1c(S(=O)(=O)c2ccc(Cl)cc2)cc2cnc(Nc3ccc4[nH]ccc4c3)nc2n1C1CCCCC1 [Example 51, 2-(1H-indol-5-ylamino)-6-(4-chlorophenylsulfonyl)-8-cyclohexylpyrido[2,3-d]pyrimidin-7(8H)-one]",25 to 50 µM,10 to 25 µM,305 to 307 °C
"CC(C)(C)OC(=O)N1CCN(c2ccc(Nc3ncc4cc(S(=O)(=O)c5ccccc5)c(=O)n(C5CCCC5)c4n3)nc2)CC1 [Example 65, 2-(5-(4-tert-butoxycarbonylpiperazin-1-yl)pyridin-2-ylamino)-8-cyclopentyl-6-(phenylsulfonyl)pyrido[2,3-d]pyrimidin-7(8H)-one]",> 100 µM,10 to 25 µM,115 to 116 °C
"Cn1c(=O)c(S(=O)(=O)c2ccc(F)cc2F)cc2cnc(Nc3ccc4c(c3)CC(=O)N4)nc21 [Example 41, 6-(2,4-difluorophenylsulfonyl)-2-(2-oxoindolin-5-ylamino)-8-methylpyrido[2,3-d]pyrimidin-7(8H)-one]",50 to 100 µM,50 to 100 µM,–
"CCCn1c(=O)c(S(=O)(=O)c2ccccc2)cc2cnc(SC)nc21 [Example 48, 2-(methylsulfanyl)-6-(phenylsulfonyl)-8-propylpyrido[2,3-d]pyrimidin-7(8H)-one]",> 100 µM,50 to 100 µM,231 to 232 °C
"CSc1ncc2cc(S(=O)(=O)c3ccc(Cl)cc3)c(=O)n(C3CCCC3)c2n1 [Example 60, 6-(4-chlorophenylsulfonyl)-8-cyclopentyl-2-(methylsulfanyl)pyrido[2,3-d]pyrimidin-7(8H)-one]",50 to 100 µM,50 to 100 µM,222 to 223 °C
"Cn1c(=O)c(S(=O)(=O)c2ccc(Cl)cc2)cc2cnc(NCCCN3CCOCC3)nc21 [Example 7, 2-(3-morpholinopropylamino)-6-(4-chlorophenylsulfonyl)-8-methylpyrido[2,3-d]pyrimidin-7(8H)-one]",25 to 50 µM,25 to 50 µM,160 to 164 °C
"C[S+]([O-])c1ncc2cc(S(=O)(=O)c3ccccc3)c(=O)n(C3CCCC3)c2n1 (centres unmarked) [Example 66, 8-cyclopentyl-2-(methylsulfinyl)-6-(phenylsulfonyl)pyrido[2,3-d]pyrimidin-7(8H)-one]",50 to 100 µM,10 to 25 µM,–
"C[S+]([O-])c1ncc2cc(S(=O)(=O)c3ccc(Cl)cc3)c(=O)n(C3CCCC3)c2n1 (centres unmarked) [Example 59, 6-(4-chlorophenylsulfonyl)-8-cyclopentyl-2-(methylsulfinyl)pyrido[2,3-d]pyrimidin-7(8H)-one]",10 to 25 µM,1 to 10 µM,–
"O=c1[nH]c2nc(Nc3ccc4[nH]ccc4c3)ncc2cc1S(=O)(=O)c1ccc(F)c(Cl)c1 [Example 46, 2-(1H-indol-5-ylamino)-6-(3-chloro-4-fluorophenylsulfonyl)pyrido[2,3-d]pyrimidin-7(8H)-one]",50 to 100 µM,10 to 25 µM,–
"Cn1c(=O)c(S(=O)(=O)c2ccc(F)c(Cl)c2)cc2cnc(Nc3ccc4c(c3)CC(=O)N4)nc21 [Example 36, 2-(2-oxoindolin-5-ylamino)-6-(3-chloro-4-fluorophenylsulfonyl)-8-methylpyrido[2,3-d]pyrimidin-7(8H)-one]",10 to 25 µM,10 to 25 µM,–
"Cn1c(=O)c(S(=O)(=O)c2ccc(F)c(Cl)c2)cc2cnc(Nc3ccc4[nH]ncc4c3)nc21 [Example 38, 2-(1H-indazol-5-ylamino)-6-(3-chloro-4-fluorophenylsulfonyl)-8-methylpyrido[2,3-d]pyrimidin-7(8H)-one]",10 to 25 µM,10 to 25 µM,–
"Cn1c(=O)c(S(=O)(=O)c2ccc(F)cc2F)cc2cnc(NCCN3CCOCC3)nc21 [Example 42, 6-(2,4-difluorophenylsulfonyl)-2-(2-morpholinoethylamino)-8-methylpyrido[2,3-d]pyrimidin-7(8H)-one]",50 to 100 µM,50 to 100 µM,–

# Continued, values first:
IC50 [1],IC50 [2],melting point,SMILES
1 to 10 µM,1 to 10 µM,252 to 255 °C,"Cc1ccc(S(=O)(=O)c2cc3cnc(Nc4cnc5[nH]ccc5c4)nc3n(C)c2=O)cc1 [Example 19, 2-(1H-pyrrolo[2,3-b]pyridin-5-ylamino)-8-methyl-6-tosylpyrido[2,3-d]pyrimidin-7(8H)-one]"
< 1 µM,< 1 µM,310 to 314 °C,"Cc1ccc(S(=O)(=O)c2cc3cnc(Nc4ccc5[nH]ccc5c4)nc3n(C)c2=O)cc1 [Example 17, 2-(1H-indol-5-ylamino)-8-methyl-6-tosylpyrido[2,3-d]pyrimidin-7(8H)-one]"
1 to 10 µM,< 1 µM,250 to 255 °C,"Cn1c(=O)c(S(=O)(=O)c2ccc(F)c(Cl)c2)cc2cnc(Nc3ccc4[nH]ccc4c3)nc21 [Example 33, 2-(1H-indol-5-ylamino)-6-(3-chloro-4-fluorophenylsulfonyl)-8-methylpyrido[2,3-d]pyrimidin-7(8H)-one]"
1 to 10 µM,1 to 10 µM,160 to 165 °C,"Cn1c(=O)c(S(=O)(=O)c2ccc(F)cc2)cc2cnc(Nc3ccc4[nH]ncc4c3)nc21 [Example 13, 2-(1H-indazol-5-ylamino)-6-(4-fluorophenylsulfonyl)-8-methylpyrido[2,3-d]pyrimidin-7(8H)-one]"
10 to 25 µM,10 to 25 µM,> 300 °C,"Cn1c(=O)c(S(=O)(=O)c2ccc(Cl)cc2)cc2cnc(Nc3ccc(Cl)cc3)nc21 [Example 3, 2-(4-chlorophenylamino)-6-(4-chlorophenylsulfonyl)-8-methylpyrido[2,3-d]pyrimidin-7(8H)-one]"
10 to 25 µM,10 to 25 µM,304 to 306 °C,"Cn1c(=O)c(S(=O)(=O)c2ccc(Cl)cc2)cc2cnc(Nc3cnc4ccccc4c3)nc21 [Example 5, 6-(4-chlorophenylsulfonyl)-8-methyl-2-(quinolin-3-ylamino)pyrido[2,3-d]pyrimidin-7(8H)-one]"
10 to 25 µM,10 to 25 µM,334 to 336 °C,"Cc1ccc(S(=O)(=O)c2cc3cnc(Nc4ccc5cc[nH]c5c4)nc3n(C)c2=O)cc1 [Example 28, 2-(1H-indol-6-ylamino)-8-methyl-6-tosylpyrido[2,3-d]pyrimidin-7(8H)-one]"
10 to 25 µM,10 to 25 µM,262 to 265 °C,"Cn1c(=O)c(S(=O)(=O)c2ccc(C(=O)O)cc2)cc2cnc(Nc3ccc4[nH]ccc4c3)nc21 [Example 37, 4-(2-(1H-indol-5-ylamino)-7,8-dihydro-8-methyl-7-oxopyrido[2,3-d]pyrimidin-6-ylsulfonyl)benzoic acid]"
10 to 25 µM,1 to 10 µM,–,"CN1CCN(c2ccc(Nc3ncc4cc(S(=O)(=O)c5ccc(Cl)cc5)c(=O)n(C5CCCC5)c4n3)cc2)CC1 [Example 58, 2-(4-(4-methylpiperazin-1-yl)phenylamine)-6-(4-chlorophenylsulfonyl)-8-cyclopentylpyrido[2,3-d]pyrimidin-7(8H)-one]"
< 1 µM,1 to 10 µM,–,"CN1CCN(c2ccc(Nc3ncc4cc(S(=O)(=O)c5ccccc5)c(=O)n(C5CCCC5)c4n3)cc2)CC1 [Example 64, 2-(4-(4-methylpiperazin-1-yl)phenylamino)-8-cyclopentyl-6-(phenylsulfonyl)pyrido[2,3-d]pyrimidin-7(8H)-one]"
< 1 µM,< 1 µM,–,"Cn1c(=O)c(S(=O)(=O)c2ccc(O)cc2)cc2cnc(Nc3ccc4[nH]ccc4c3)nc21 [Example 43, 2-(1H-indol-5-ylamino)-6-(4-hydroxyphenylsulfonyl)-8-methylpyrido[2,3-d]pyrimidin-7(8H)-one]"
